Experimental data taken from the NIST ThermoML archive (doi:10.1016/j.jct.2016.03.026).

Assay: xn = mol fraction of the nth substance listed
Conditions: Fluid (supercritical or subcritical phases), x1 = 0.97; for speed of sound: Frequency=5 MHz, Pulse-echo method; for mass density: 283.15 K, Vibrating tube method

O=C=O [carbon dioxide] + CO
speed of sound [m/s]
Conditions	273.15 K	283.14 K
14010 kPa	–	615.2
20000 kPa	–	679.8
25010 kPa	–	725
29940 kPa	–	763.8
34980 kPa	–	799.7
39940 kPa	–	831.8
39990 kPa	875.6	–
44950 kPa	903.5	–
45090 kPa	–	862.8
49960 kPa	929.9	–
50150 kPa	–	890.9
54970 kPa	954.7	–
55020 kPa	–	916.3
59830 kPa	–	940.2
60000 kPa	978.4	–
64950 kPa	1000.7	964.2
69990 kPa	1022.2	–
70150 kPa	–	987.4
74930 kPa	1042.5	–
74970 kPa	–	1007.9
79680 kPa	–	1027.1
80120 kPa	1062.9	–
90140 kPa	1100	–
90230 kPa	–	1067.9
99950 kPa	–	1102.7
99970 kPa	1134.2	–
109900 kPa	–	1136.3
110030 kPa	1167	–
120080 kPa	–	1168.8
120150 kPa	1198.3	–
139940 kPa	1255	–
140090 kPa	–	1227.7
159790 kPa	1307.2	–
159980 kPa	–	1281
180050 kPa	–	1330.2
180530 kPa	1357.4	–

Conditions	mass density [kg/m3]
5300 kPa	882.11
5325 kPa	882.5
5350 kPa	882.83
5375 kPa	883.08
5400 kPa	883.4
5425 kPa	883.67
5450 kPa	883.98
5475 kPa	884.26
5500 kPa	884.47
5525 kPa	884.8
5550 kPa	885.04
5575 kPa	885.37
5600 kPa	885.62
5625 kPa	885.95
5650 kPa	886.26
5675 kPa	886.49
5700 kPa	886.8
5725 kPa	887.09
5750 kPa	887.39
5775 kPa	887.67
5800 kPa	888.01
5825 kPa	888.24
5850 kPa	888.54
5875 kPa	888.77
5900 kPa	889.08
5925 kPa	889.31
5950 kPa	889.55
5975 kPa	889.92
6000 kPa	890.13
6025 kPa	890.33
6050 kPa	890.62
6075 kPa	890.95
6100 kPa	891.19
6125 kPa	891.52
6150 kPa	891.86
6175 kPa	892.08
6200 kPa	892.35
6225 kPa	892.62
6250 kPa	892.89
6275 kPa	893.14
6300 kPa	893.45
6325 kPa	893.63
6350 kPa	893.89
6375 kPa	894.18
6400 kPa	894.43
6425 kPa	894.67
6450 kPa	894.92
6475 kPa	895.17
6500 kPa	895.37
6525 kPa	895.62
6550 kPa	895.96
6575 kPa	896.11
6600 kPa	896.41
6625 kPa	896.62
6650 kPa	896.9
6675 kPa	897.02
6700 kPa	897.4
6725 kPa	897.56
6750 kPa	897.77
6775 kPa	898.06
6800 kPa	898.37
6825 kPa	898.6
6850 kPa	898.87
6875 kPa	899.09
6900 kPa	899.3
6925 kPa	899.5
6950 kPa	899.65
6975 kPa	899.77
7000 kPa	899.79
7025 kPa	899.99
7050 kPa	900.2
7075 kPa	900.45
7100 kPa	900.68
7125 kPa	900.92
7150 kPa	901.15
7175 kPa	901.36
7200 kPa	901.57
7225 kPa	901.84
7250 kPa	902.09
7275 kPa	902.25
7300 kPa	902.49
7325 kPa	902.74
7350 kPa	902.98
7375 kPa	903.16
7400 kPa	903.45
7425 kPa	903.64
7450 kPa	903.9
7475 kPa	904.05
7500 kPa	904.3
7525 kPa	904.46
7550 kPa	904.69
7575 kPa	904.94
7600 kPa	905.11
7625 kPa	905.36
7650 kPa	905.61
7675 kPa	905.8
7700 kPa	906.04
7725 kPa	906.26
7750 kPa	906.42
7775 kPa	906.67
7800 kPa	906.89
7825 kPa	907.08
7850 kPa	907.32
7875 kPa	907.57
7900 kPa	907.73
7925 kPa	908.06
7950 kPa	908.15
7975 kPa	908.39
8000 kPa	908.68
8025 kPa	908.88
8050 kPa	909.06
8075 kPa	909.27
8100 kPa	909.45
8125 kPa	909.7
8150 kPa	909.86
8175 kPa	910.09
8200 kPa	910.33
8225 kPa	910.56
8250 kPa	910.76
8275 kPa	910.96
8300 kPa	911.17
8325 kPa	911.44
8350 kPa	911.66
8375 kPa	911.83
8400 kPa	912.07
8425 kPa	912.24
8450 kPa	912.4
8475 kPa	912.59
8500 kPa	912.85
8525 kPa	913.06
8550 kPa	913.26
8575 kPa	913.46
8600 kPa	913.66
8625 kPa	913.87
8650 kPa	914.07
8675 kPa	914.29
8700 kPa	914.39
8725 kPa	914.62
8750 kPa	914.82
8775 kPa	915.04
8800 kPa	915.26
8825 kPa	915.43
8850 kPa	915.64
8875 kPa	915.83
8900 kPa	916
8925 kPa	916.16
8950 kPa	916.35
8975 kPa	916.53
9000 kPa	916.73
9025 kPa	916.93
9050 kPa	917.12
9075 kPa	917.31
9100 kPa	917.55
9125 kPa	917.75
9150 kPa	917.9
9175 kPa	918.13
9200 kPa	918.33
9225 kPa	918.6
9250 kPa	918.7
9275 kPa	918.95
9300 kPa	919.11
9325 kPa	919.31
9350 kPa	919.52
9375 kPa	919.69
9400 kPa	919.87
9425 kPa	920.09
9450 kPa	920.32
9475 kPa	920.47
9500 kPa	920.65
9525 kPa	920.85
9550 kPa	921.09
9575 kPa	921.21
9600 kPa	921.39
9625 kPa	921.56
9650 kPa	921.81
9675 kPa	921.97
9700 kPa	922.14
9725 kPa	922.38
9750 kPa	922.58
9775 kPa	922.71
9800 kPa	922.94
9825 kPa	923.15
9850 kPa	923.28
9875 kPa	923.48
9900 kPa	923.69
9925 kPa	923.77
9950 kPa	924
9975 kPa	924.18
10000 kPa	924.34
10025 kPa	924.53
10050 kPa	924.71
10075 kPa	924.83
10100 kPa	925.08
10125 kPa	925.24
10150 kPa	925.41
10175 kPa	925.57
10200 kPa	925.75
10225 kPa	926.06
10250 kPa	926.06
10275 kPa	926.3
10300 kPa	926.47
10325 kPa	926.69
10350 kPa	926.79
10375 kPa	927.06
10400 kPa	927.17
10425 kPa	927.34
